In patent US8569509B2, “Thiazole-4-carboxylic acid esters and thioesters as plant protection agents” (priority 2008, dated 2013):

Assay: log P determination (HPLC, calibration with unbranched alkan-2-ones)
Assay type: physicochemical
Details: * LC-MS determination in the acidic range at pH 2.7, 0.1% aqueous formic acid and acetonitrile, linear gradient 10% to 95% acetonitrile
Procedure: The calibration is carried out using unbranched alkan-2-ones (having 3 to 16 carbon atoms) with known log P values (determination of the log P values by the retention times using linear interpolation between two successive alkanones). The lambda-maX values were determined in the maxima of the chromatographic signals using the UV spectra from 200 nm to 400 nm.

| Compound | log p |
| --- | --- |
| Cc1cc(C)n(C(C)(C)C(=O)N2CCC(c3nc(C(=O)OC(C)c4ccc(F)cc4)cs3)CC2)n1 (racemic) [compound 403] | 3.47* |
| Cc1c(Cl)c(C(F)(F)F)nn1C(C)C(=O)N1CCC(c2nc(C(=O)OC3CCCCC3)cs2)CC1 (racemic) [compound 769] | 4.58* |

Same assay, conditions: * LC-MS determination in the acidic range at pH 2.7, mobile phases 0.1% aqueous formic acid and acetonitrile (0.1% formic acid), linear gradient 10% to 95% acetonitrile; reversed-phase C 18 HPLC

| Compound | log p |
| --- | --- |
| CC=CC(CC)OC(=O)c1csc(C2CCN(C(=O)C(C)(C)n3nc(C)cc3C)CC2)n1 (mixture of isomers) [compound 799] | 3.78* |
| Cc1c(Cl)c(C(F)(F)F)nn1C(C)C(=O)N1CCC(c2nc(C(=O)Oc3cccc4ccccc34)cs2)CC1 (racemic) [compound 770] | 4.50* |

Same assay, conditions: * LC-MS determination in the acidic range, pH 2.7, 0.1% aqueous formic acid and acetonitrile, linear gradient 10% to 95% acetonitrile

| Compound | log p |
| --- | --- |
| Cc1cc(C(F)(F)F)nn1CC(=O)N1CCC(c2nc(C(=O)OC3CCCC3)cs2)CC1 [compound 3] | 3.40* |
| Cc1cc(C(F)(F)F)nn1CC(=O)N1CCC(c2nc(C(=O)OC3CCc4ccccc43)cs2)CC1 (stereo not shown) [compound 8] | 3.76* |
| Cc1cc(C(F)(F)F)nn1CC(=O)N1CCC(c2nc(C(=O)Oc3ccc4ccccc4c3)cs2)CC1 [compound 10] | 3.84* |
| Cc1cc(C(F)(F)F)nn1CC(=O)N1CCC(c2nc(C(=O)OCc3ccc(F)cc3)cs2)CC1 [compound 12] | 3.35* |
| Cc1cc(C(F)(F)F)nn1CC(=O)N1CCC(c2nc(C(=O)OCc3ccccc3)cs2)CC1 [compound 15] | 3.37* |
| Cc1cc(C(F)(F)F)nn1CC(=O)N1CCC(c2nc(C(=O)OCc3ccc(Cl)cc3)cs2)CC1 [compound 17] | 3.73* |
| Cc1ccc(COC(=O)c2csc(C3CCN(C(=O)Cn4nc(C(F)(F)F)cc4C)CC3)n2)cc1 [compound 18] | 4.21* |
| COc1ccc(COC(=O)c2csc(C3CCN(C(=O)Cn4nc(C(F)(F)F)cc4C)CC3)n2)cc1 [compound 19] | 3.30* |
| Cc1cc(C(F)(F)F)nn1CC(=O)N1CCC(c2nc(C(=O)OCc3ccc(Cl)cc3Cl)cs2)CC1 [compound 20] | 3.69* |
| Cc1cc(C(F)(F)F)nn1CC(=O)N1CCC(c2nc(C(=O)OCc3cc(Cl)cc(Cl)c3)cs2)CC1 [compound 21] | 4.24* |
| Cc1cc(C(F)(F)F)nn1CC(=O)N1CCC(c2nc(C(=O)OCc3c(Cl)cccc3Cl)cs2)CC1 [compound 22] | 3.94* |
| Cc1cc(C(F)(F)F)nn1CC(=O)N1CCC(c2nc(C(=O)OCc3cccc(Cl)c3)cs2)CC1 [compound 24] | 3.72* |
| Cc1cc(C(F)(F)F)nn1CC(=O)N1CCC(c2nc(C(=O)OCc3cccc(C(F)(F)F)c3)cs2)CC1 [compound 25] | 3.81* |
| Cc1cc(C(F)(F)F)nn1CC(=O)N1CCC(c2nc(C(=O)OCc3ccc([N+](=O)[O-])cc3)cs2)CC1 [compound 28] | 3.22* |
| Cc1cc(C(F)(F)F)nn1CC(=O)N1CCC(c2nc(C(=O)OCc3ccc(C(C)(C)C)cc3)cs2)CC1 [compound 29] | 4.57* |

Same assay, conditions: pH 2.7; read-out: log P (pH 2.7)

| Compound | chromatographic logP |
| --- | --- |
| O=C(O)c1csc(C2CCN(C(=O)Cn3nc(C(F)F)cc3C(F)F)CC2)n1 [III-1, 2-(1-{[3,5-Bis(difluoromethyl)-1H-pyrazol-1-yl]acetyl}piperidin-4-yl)-1,3-thiazole-4-carboxylic acid] | 1.71 |
| O=C(O)c1csc(C2CCN(C(=O)Cn3ccc(C(F)(F)F)n3)CC2)n1 [III-2, 2-(1-{[3-(Trifluoromethyl)-1H-pyrazol-1-yl]acetyl}piperidin-4-yl)-1,3-thiazole-4-carboxylic acid] | 1.65 |
| Cc1cc(C(F)(F)F)nn1CC(=O)N1CCCC(c2nc(C(=O)O)cs2)C1 (stereo not shown) [III-3, 2-(1-{[5-Methyl-3-(trifluoromethyl)-1H-pyrazol-1-yl]acetyl}piperidin-3-yl)-1,3-thiazole-4-carboxylic acid] | 1.9 |
| Cc1cc(C(F)(F)F)nn1CC(=O)N1CCC(c2nc(C(=O)O)cs2)CC1 [III-4, 2-(1-{[5-Methyl-3-(trifluoromethyl)-1H-pyrazol-1-yl]acetyl}piperidin-4-yl)-1,3-thiazole-4-carboxylic acid] | 1.82 |
| Cc1c(Cl)c(C(F)(F)F)nn1CC(=O)N1CCC(c2nc(C(=O)O)cs2)CC1 [III-5, 2-(1-{[4-Chloro-5-methyl-3-(trifluoromethyl)-1H-pyrazol-1-yl]acetyl}piperidin-4-yl)-1,3-thiazole-4-carboxylic acid] | 2.26 |
| CCOC(=O)c1csc(C2CCN(C(=O)Cn3nc(C(F)F)cc3C(F)F)CC2)n1 [IV-1, Ethyl 2-(1-{[3,5-bis(difluoromethyl)-1H-pyrazol-1-yl]acetyl}piperidin-4-yl)-1,3-thiazole-4-carboxylate] | 2.52 |
| CCOC(=O)c1csc(C2CCN(C(=O)Cn3ccc(C(F)(F)F)n3)CC2)n1 [IV-2, Ethyl 2-(1-{[3-(trifluoromethyl)-1H-pyrazol-1-yl]acetyl}piperidin-4-yl)-1,3-thiazole-4-carboxylate] | 2.41 |
| CCOC(=O)c1csc(C2CCCN(C(=O)Cn3nc(C(F)(F)F)cc3C)C2)n1 (stereo not shown) [IV-3, Ethyl 2-(1-{[5-methyl-3-(trifluoromethyl)-1H-pyrazol-1-yl]acetyl}piperidin-3-yl)-1,3-thiazole-4-carboxylate] | 2.78 |
| CCOC(=O)c1csc(C2CCN(C(=O)Cn3nc(C(F)(F)F)cc3C)CC2)n1 [IV-5, Ethyl 2-(1-{[5-methyl-3-(trifluoromethyl)-1H-pyrazol-1-yl]acetyl}piperidin-4-yl)-1,3-thiazole-4-carboxylate] | 2.62 |
| CCOC(=O)c1csc(C2CCN(C(=O)Cn3nc(C(F)(F)F)c(Cl)c3C)CC2)n1 [IV-6, Ethyl 2-(1-{[4-chloro-5-methyl-3-(trifluoromethyl)-1H-pyrazol-1-yl]acetyl}piperidin-4-yl)-1,3-thiazole-4-carboxylate] | 3.17 |
| CC(C)(C)OC(=O)N1CCC(c2nc(C(=O)Oc3cccc4ccccc34)cs2)CC1 [IX-2, tert-Butyl 4-{4-[(1-naphthyloxy)carbonyl]-1,3-thiazol-2-yl}piperidine-1-carboxylate] | 4.5 |
| CC(C)(C)c1cc(C(F)(F)F)n(CC(=O)O)n1 [V-1, [3-tert-Butyl-5-(trifluoromethyl)-1H-pyrazol-1-yl]acetic acid] | 2.45 |
| CC(C)(C)c1cc(C(F)(F)F)nn1CC(=O)O [V-2, [5-tert-Butyl-3-(trifluoromethyl)-1H-pyrazol-1-yl]acetic acid] | 2.45 |
| CC(C)(C)c1cc(C(F)(F)C(F)(F)F)n(CC(=O)O)n1 [V-3, [3-tert-Butyl-5-(pentafluoroethyl)-1H-pyrazol-1-yl]acetic acid] | 2.92 |
| CC(C)(C)c1cc(C(F)(F)C(F)(F)F)nn1CC(=O)O [V-4, [5-tert-Butyl-3-(pentafluoroethyl)-1H-pyrazol-1-yl]acetic acid] | 2.75 |
| CC(C)c1cc(C(F)(F)F)n(CC(=O)O)n1 [V-5, [3-Isopropyl-5-(trifluoromethyl)-1H-pyrazol-1-yl]acetic acid] | 2.05 |
| CCOC(=O)c1csc(C2CCNCC2)n1 [VI-1, 4-[4-(Ethoxycarbonyl)-1,3-thiazol-2-yl]piperidinium chloride] | 0.42 |
| CCOC(=O)c1csc(C2CCCNC2)n1 (stereo not shown) [VI-2, 3-[4-(Ethoxycarbonyl)-1,3-thiazol-2-yl]piperidinium chloride] | 0.54 |
| O=C(Oc1cccc2ccccc12)c1csc(C2CCNCC2)n1 [X-2, 4-{4-[(1-Naphthyloxy)carbonyl]-1,3-thiazol-2-yl}piperidinium chloride] | 1.42 |
| CCOC(=O)Cn1nc(C(C)(C)C)cc1C(F)(F)F [XVI-1, Ethyl [3-tert-butyl-5-(trifluoromethyl)-1H-pyrazol-1-yl]acetate] | 3.89 |
| CCOC(=O)Cn1nc(C(F)(F)F)cc1C(C)(C)C [XVI-2, Ethyl [5-tert-butyl-3-(trifluoromethyl)-1H-pyrazol-1-yl]acetate] | 3.48 |
| CCOC(=O)Cn1nc(C(C)(C)C)cc1C(F)(F)C(F)(F)F [XVI-3, Ethyl [3-tert-butyl-5-(pentafluoroethyl)-1H-pyrazol-1-yl]acetate] | 4.45 |
| CCOC(=O)Cn1nc(C(F)(F)C(F)(F)F)cc1C(C)(C)C [XVI-4, Ethyl [5-tert-butyl-3-(pentafluoroethyl)-1H-pyrazol-1-yl]acetate] | 4.05 |
| CCOC(=O)Cn1nc(C(C)C)cc1C(F)(F)F [XVI-5, Ethyl [3-isopropyl-5-(trifluoromethyl)-1H-pyrazol-1-yl]acetate] | 3.22 |
| CCOC(=O)Cn1nc(C(F)(F)F)c(Cl)c1C [XVI-6, Ethyl [4-chloro-5-methyl-3-(trifluoromethyl)-1H-pyrazol-1-yl]acetate] | 3.11 |
| CC(C)(C)c1cc(C(F)(F)C(F)(F)F)[nH]n1 [XVIII-1, 3-tert-Butyl-5-(pentafluoroethyl)-1H-pyrazole] | 3.23 |
| Cc1cc(C(F)(F)F)nn1CC(=O)N1CCC(c2nc(C(=O)SCc3ccc(F)cc3)cs2)CC1 [compound 27, S-(4-Fluorobenzyl) 2-(1-{[5-methyl-3-(trifluoromethyl)-1H-pyrazol-1-yl]acetyl}piperidin-4-yl)-1,3-thiazole-4-carbothioate] | 4 |

Same assay, conditions: pH 7.8; read-out: log P (pH 7.8)

| Compound | chromatographic logP |
| --- | --- |
| CCOC(=O)c1csc(C2CCN(C(=O)C(C)(C)n3nc(C)cc3C)CC2)n1 [IV-4, Ethyl 2-{1-[2-(3,5-dimethyl-1H-pyrazol-1-yl)-2-methylpropanoyl]piperidin-4-yl}-1,3-thiazole-4-carboxylate] | 2.34 |
| Cc1c(Cl)c(C(F)(F)F)nn1CC(=O)O [V-6, [4-Chloro-5-methyl-3-(trifluoromethyl)-1H-pyrazol-1-yl]acetic acid] | 0.68 |

Same assay, conditions: reversed-phase (C18) HPLC column; * LC-MS determination in the acidic range, pH 2.7, 0.1% aqueous formic acid and acetonitrile, linear gradient 10% to 95% acetonitrile; read-out: log p

| Compound | chromatographic logP |
| --- | --- |
| Cc1cc(C(F)(F)F)nn1CC(=O)N1CCC(c2nc(C(=O)SCc3ccc(F)cc3)cs2)CC1 [compound 27, S-(4-Fluorobenzyl) 2-(1-{[5-methyl-3-(trifluoromethyl)-1H-pyrazol-1-yl]acetyl}piperidin-4-yl)-1,3-thiazole-4-carbothioate] | 4 |
